What was measured:
[1] = tested on: Oryza sativa; test: Post-emergence herbicidal effect and crop plant compatibility; assay type: in vivo; conditions: visual scoring after about 3 weeks
Procedure, shortened: (§1)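 Post-emergence greenhouse trial. Seedlings in sandy loam sprayed at one-leaf stage; application volume 600 to 800 L/ha with 0.2% wetting agent. Scored by eye at ~3 weeks (100% = death).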

[2] = tested on: Zea mays; test: as above; assay type: in vivo; conditions: visual scoring after about 3 weeks
Procedure, shortened: as §1

[3] = tested on: Triticum aestivum (spring); test: as above; assay type: in vivo; conditions: visual scoring after about 3 weeks
Procedure, shortened: as §1

[4] = tested on: Zea mays; test: Pre-emergence herbicidal effect and crop plant compatibility; assay type: in vivo; conditions: 3 weeks
Procedure, shortened: (§2)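 Percent herbicidal effect or crop damage, judged visually 3 weeks after surface treatment of soil-covered seeds. Treatment used WP or EC formulations diluted in water, 600 to 800 L/ha, plus 0.2% wetting agent.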

[5] = tested on: Triticum aestivum (spring); test: as above; assay type: in vivo; conditions: 80 g/ha, 3 weeks
Procedure, shortened: as §2

[6] = logp (HCOOH), physicochemical characterization
[7] = tested on: Matricaria inodora; test: Pre-emergence herbicidal effect; assay type: in vivo; conditions: 3 weeks
Procedure, shortened: as §2

[8] = tested on: Setaria viridis; test: Pre-emergence herbicidal effect; assay type: in vivo; conditions: 3 weeks
Procedure, shortened: as §2

[9] = tested on: Veronica persica; test: Pre-emergence herbicidal effect; assay type: in vivo; conditions: 3 weeks
Procedure, shortened: as §2

[10] = tested on: Lolium multiflorum; test: Pre-emergence herbicidal effect; assay type: in vivo; conditions: 3 weeks
Procedure, shortened: as §2

[11] = tested on: Cyperus esculentus; test: Pre-emergence herbicidal effect; assay type: in vivo; conditions: 3 weeks
Procedure, shortened: as §2

[12] = tested on: Alopecurus myosuroides; test: Pre-emergence herbicidal effect; assay type: in vivo; conditions: 3 weeks
Procedure, shortened: as §2

[13] = tested on: Echinochloa crus-galli; test: Pre-emergence herbicidal effect; assay type: in vivo; conditions: 3 weeks
Procedure, shortened: as §2

[14] = tested on: Polygonum convolvulus; test: Pre-emergence herbicidal effect; assay type: in vivo; conditions: 3 weeks
Procedure, shortened: as §2

[15] = tested on: Amaranthus retroflexus; test: Pre-emergence herbicidal effect; assay type: in vivo; conditions: 3 weeks
Procedure, shortened: as §2

[16] = tested on: Viola tricolor; test: Pre-emergence herbicidal effect; assay type: in vivo; conditions: 3 weeks
Procedure, shortened: as §2

[17] = tested on: Stellaria media; test: Pre-emergence herbicidal effect; assay type: in vivo; conditions: 3 weeks
Procedure, shortened: as §2

[18] = tested on: Setaria viridis; test: Post-emergence herbicidal effect; assay type: in vivo; conditions: 320 g/ha (dose by row order of upper half), scoring after about 3 weeks
Procedure, shortened: as §1

[19] = tested on: Lolium multiflorum; test: Post-emergence herbicidal effect; assay type: in vivo; conditions: visual scoring after about 3 weeks
Procedure, shortened: as §1

[20] = tested on: Avena fatua; test: Post-emergence herbicidal effect; assay type: in vivo; conditions: 320 g/ha, visual scoring after about 3 weeks
Procedure, shortened: as §1

[21] = tested on: Alopecurus myosuroides; test: Post-emergence herbicidal effect; assay type: in vivo; conditions: 320 g/ha, visual scoring after about 3 weeks
Procedure, shortened: as §1

[22] = tested on: Echinochloa crus-galli; test: Post-emergence herbicidal effect; assay type: in vivo; conditions: visual scoring after about 3 weeks
Procedure, shortened: as §1

[23] = tested on: Ipomoea purpurea; test: Post-emergence herbicidal effect; assay type: in vivo; conditions: scoring after about 3 weeks
Procedure, shortened: as §1

[24] = tested on: Abutilon theophrasti; test: Pre-emergence herbicidal effect; assay type: in vivo; conditions: 320 g/ha, 3 weeks
Procedure, shortened: as §2

[25] = tested on: Avena fatua; test: Pre-emergence herbicidal effect; assay type: in vivo; conditions: 320 g/ha, 3 weeks
Procedure, shortened: as §2

[26] = tested on: Oryza sativa; test: Pre-emergence herbicidal effect and crop plant compatibility; assay type: in vivo; conditions: 80 g/ha, 3 weeks
Procedure, shortened: as §2

[27] = 320 g/ha (dose by row order of upper half)

SMILES	post-emergence efficacy ORYSA ([1]; 80 g/ha) [%]	post-emergence efficacy ZEAMX ([2]; 80 g/ha) [%]	post-emergence efficacy TRZAS ([3]; 80 g/ha) [%]	ZEAMX herbicidal activity in percent ([4]; 80 g/ha) [%]	TRZAS herbicidal activity in percent [5] [%]	MATIN herbicidal activity in percent ([7]; 80 g/ha) [%]	MATIN herbicidal activity in percent ([7]; 320 g/ha) [%]	SETVI herbicidal activity in percent ([8]; 80 g/ha) [%]	SETVI herbicidal activity in percent ([8]; 320 g/ha) [%]	VERPE herbicidal activity in percent ([9]; 80 g/ha) [%]	VERPE herbicidal activity in percent ([9]; 320 g/ha) [%]	LOLMU herbicidal activity in percent ([10]; 80 g/ha) [%]	LOLMU herbicidal activity in percent ([10]; 320 g/ha) [%]	CYPES herbicidal activity in percent ([11]; 320 g/ha) [%]	ALOMY herbicidal activity in percent ([12]; 80 g/ha) [%]	ALOMY herbicidal activity in percent ([12]; 320 g/ha) [%]	ECHCG herbicidal activity in percent ([13]; 80 g/ha) [%]	ECHCG herbicidal activity in percent ([13]; 320 g/ha) [%]	POLCO herbicidal activity in percent ([14]; 80 g/ha) [%]	POLCO herbicidal activity in percent ([14]; 320 g/ha) [%]	also measured
CC(=O)c1cnc(N[C@H]2c3cc(C)ccc3C[C@@H]2C)nc1C [1.26]	0	0	0	0	0	100	100	100	100	100	100	80	100	80	90	90	100	100	100	100	post-emergence efficacy ORYSA ([1]; 320 g/ha): 0%; post-emergence efficacy ZEAMX ([2]; 320 g/ha): 0%; ZEAMX herbicidal activity in percent ([4]; 320 g/ha): 0%; logp (HCOOH) [6]: solid; logp (HCOOH): 3.56; 1H-NMR (CDCl3, 400 MHZ, δ in ppm): 1.20 (d, 3H,; CYPES herbicidal activity in percent ([11]; 80 g/ha): 80%; AMARE herbicidal activity in percent ([15]; 80 g/ha): 100%; AMARE herbicidal activity in percent ([15]; 320 g/ha): 100%; VIOTR herbicidal activity in percent ([16]; 80 g/ha): 100%; VIOTR herbicidal activity in percent ([16]; 320 g/ha): 100%; STEME herbicidal activity in percent ([17]; 80 g/ha): 100%; STEME herbicidal activity in percent ([17]; 320 g/ha): 100%; post-emergence efficacy SETVI [18]: 90%; post-emergence efficacy LOLMU ([19]; 320 g/ha): 80%; post-emergence efficacy AVEFA [20]: 80%; post-emergence efficacy ALOMY [21]: 90%; post-emergence efficacy ECHCG ([22]; 80 g/ha): 90%; post-emergence efficacy ECHCG ([22]; 320 g/ha): 100%; post-emergence efficacy PHBPU [23, 27]: 90%
Cc1ccc2c(c1)[C@H](Nc1ncc3c(n1)CCCC3=O)[C@@H](C)C2 [2.43]	10	0	10	20	0	100	100	90	100	100	100	100	100	80	100	100	100	100	100	100	post-emergence efficacy TRZAS ([3]; 320 g/ha): 10%; logp (HCOOH) [6]: solid; logp (HCOOH): 3.45; 1H-NMR (CDCl3, 400 MHZ, δ in ppm): 1.25 (t, 3H, CH3);; ABUTH herbicidal activity in percent [24]: 100%; AVEFA herbicidal activity in percent [25]: 100%; AMARE herbicidal activity in percent ([15]; 80 g/ha): 100%; AMARE herbicidal activity in percent ([15]; 320 g/ha): 100%; VIOTR herbicidal activity in percent ([16]; 80 g/ha): 100%; VIOTR herbicidal activity in percent ([16]; 320 g/ha): 100%; STEME herbicidal activity in percent ([17]; 80 g/ha): 100%; STEME herbicidal activity in percent ([17]; 320 g/ha): 100%; post-emergence efficacy SETVI [18]: 80%; post-emergence efficacy LOLMU ([19]; 80 g/ha): 80%; post-emergence efficacy LOLMU ([19]; 320 g/ha): 100%; post-emergence efficacy AVEFA [20]: 100%; post-emergence efficacy ECHCG ([22]; 80 g/ha): 90%; post-emergence efficacy ECHCG ([22]; 320 g/ha): 90%; post-emergence efficacy PHBPU ([23]; 80 g/ha (dose by row order of upper half)): 80%
O=C1CCCc2nc(N[C@@H]3CCCc4ccccc43)ncc21 [2.23]	20	0	0	0	0	100	100	100	100	100	100	80	100	90	80	100	80	100	100	100	post-emergence efficacy ORYSA ([1]; 320 g/ha): 20%; post-emergence efficacy TRZAS ([3]; 320 g/ha): 0%; ORYSA herbicidal activity in percent [26]: 5%; AVEFA herbicidal activity in percent [25]: 90%; AMARE herbicidal activity in percent ([15]; 80 g/ha): 100%; AMARE herbicidal activity in percent ([15]; 320 g/ha): 100%; VIOTR herbicidal activity in percent ([16]; 80 g/ha): 100%; VIOTR herbicidal activity in percent ([16]; 320 g/ha): 100%; STEME herbicidal activity in percent ([17]; 80 g/ha): 100%; STEME herbicidal activity in percent ([17]; 320 g/ha): 100%; post-emergence efficacy LOLMU ([19]; 320 g/ha): 100%; post-emergence efficacy AVEFA [20]: 100%; post-emergence efficacy ECHCG ([22]; 320 g/ha): 90%; post-emergence efficacy PHBPU [23, 27]: 80%

— US10183914B2 (BAYER CROPSCIENCE AKTIENGESELLSCHAFT, priority 2014, dated 2019)
